The source of these data is US12600724B2, “Indole alkaloid and preparation method and use thereof” (NANJING UNIVERSITY OF CHINESE MEDICINE, priority 2022, dated 2026).

In assay [1] the test system is STZ-induced type-1 diabetes model mice. In words: 50% mechanical pain threshold (Von frey), type-1 diabetic peripheral neuropathy mice. It is filed as in vivo, C57BL/6J mice. The following applies: type-1 mice, S26 46.8 mg/kg/day intragastric, Mean ± SD, n = 6. On the procedure:
Type-1 diabetes mice: male 8-week-old C57BL/6J mice were purchased from Beijing Vital River Laboratory Animal Technology Co., Ltd. One week after adaptive feeding, STZ (150 mg/kg) was injected intraperitoneally, and one week later, tail vein blood collection was carried out for blood sugar detection, and the mice with random blood sugar greater than 16 mmol/L were selected. Six weeks after STZ injection, the mice were divided into a control group (non-diabetic mice), a model group (DPN mice) and a S26 administration group (46.8 mg/kg/day) respectively according to body weight and blood sugar, and administrated intragastrically for four weeks continuously. This experiment was based on a principle that claws of rodents would have a withdrawal reflex under mechanical stimulation. A Von frey tactile measuring set was purchased from Ugo Basile Company, and Von frey filaments could provide 0.008 g to 300 g of stimulating force, wherein a thickness of the filaments determined a magnitude of the stimulating force. Specific experimental method: filaments with proper thicknesses were selected to vertically stimulate a skin, and the stimulating force was adjusted by replacing the filaments, until the filaments were bent. One mouse was tested for 6 times to determine a threshold, and a 50% mechanical pain threshold of the mouse was calculated according to 50% threshold=(10^(Xf+k δ))/10000, which was detected weekly before and after administration respectively.

Assay [2] shares this test system. In words: Motor nerve conduction velocity, type-1 diabetic peripheral neuropathy mice. It is filed as in vivo, C57BL/6J mice. The following applies: for Motor nerve conduction velocity: type-1 mice, S26 46.8 mg/kg/day intragastric, Mean ± SD, n = 3. On the procedure: Type-1 diabetes mice: male 8-week-old C57BL/6J mice were purchased from Beijing Vital River Laboratory Animal Technology Co., Ltd. One week after adaptive feeding, STZ (150 mg/kg) was injected intraperitoneally, and one week later, tail vein blood collection was carried out for blood sugar detection, and the mice with random blood sugar greater than 16 mmol/L were selected. Six weeks after STZ injection, the mice were divided into a control group (non-diabetic mice), a model group (DPN mice) and a S26 administration group (46.8 mg/kg/day) respectively according to body weight and blood sugar, and administrated intragastrically for four weeks continuously. Before administration, 2 weeks and 4 weeks after administration, motor nerve conduction velocities (MNCV) of left and right sides of each group of mice were detected, and a mean value of the velocities of two sides was taken as a nerve conduction velocity of each mouse. Specific experimental method: (1) electrode placement: a stimulating electrode was placed on a nerve trunk, a recording electrode was placed on a muscle belly, and a reference electrode was placed on a muscle tendon; and a ground electrode was placed between the stimulating electrode and the recording electrode. (2) Calculation of motor nerve conduction velocity: distal and proximal ends of the nerve trunk were stimulated in a super-strong manner, a compound muscle action potential could be recorded twice on a muscle innervated by the nerve, different latent periods of the compound muscle action potentials were measured, and a distance between the distal and proximal ends was divided by a difference between the two latent periods, so as to obtain the nerve conduction velocity. Computational formula: nerve conduction velocity (m/s)=distance between two ends (cm)×10/difference between two latent periods (ms).

In assay [3] the test system is DRG neurons of type-2 diabetes peripheral neuropathy model mice. In words: Axon growth of DRG neuron cells taken after administration, type-2 mice. The format is in vivo, BKS db/db mice. Here is the method: Type-2 diabetes mice: male 18-week-old BKS db/db mice were purchased from Jiangsu Gempharmatech Biotechnology Co., Ltd. One week after adaptive feeding, the mice were divided into a control group (db/m mice), a model group (db/db mice) and a S26 administration group (46.8 mg/kg/day) respectively according to body weight and blood sugar, and administrated intragastrically for four weeks continuously. After administration, a fresh DRG neuron of a mouse was extracted to digest into a single-cell suspension and then inoculated into a culture plate for adherent culture overnight. A β-tubulin III (Sigma) protein of the DRG neuron cells was labeled by an immunofluorescence staining method. The protein was imaged by a fluorescence microscope (Leica), and a total axon length of a single DRG neuron cell was tracked by a Neuro J plug-in in Image J software.

In assay [4] the test system is primary DRG neuron. Briefly: Axon growth of primary DRG neurons (immunofluorescence, Neuro J). It is filed as cell-based, C57BL/6J mice. The note with it: 24 hours. On the procedure:
Diabetic peripheral neuropathy involved a sensory neuron first, and a main pathological change was axonal atrophy and degeneration, or even disappearance. […] Therefore, the compounds in the examples were added with the primary DRG neuron to incubate for a certain period of time, then the axon growth of the DRG neuron was detected by immunofluorescence, and an axon length was quantified by Neuro J, so as to evaluate the promotion effect of the compound on the axon growth of the peripheral sensory neuron.
Primary antibodies of mice anti-β-tubulin III used for fluorescent staining were purchased from Sigma Company, cell culture reagents were all purchased from Gibco Company, and DRG neuronal cells were taken from C57BL/6J mice. Specific experimental steps were as follows: fresh DRG of the C57 mice was extracted to digest into a single-cell suspension and then inoculated into a culture plate for adherent culture overnight, with vinblastine as a positive drug, the to-be-detected compounds S1 to S87 ([…]) synthesized in the above examples were given to incubate for 24 hours, then an original culture medium was removed, 4% paraformaldehyde was added into each well to fix for 15 minutes after PBS washing, the mixture was permeabilized with 0.3% TritonX-100 for 5 minutes and sealed at room temperature with 4% BSA for 1 hour, a primary antibody (1:1000) was incubated at 4° C. overnight, a goat anti-mouse fluorescent secondary antibody (1:300) was incubated at room temperature in the dark for 1 hour, and a sealed slide was imaged by a fluorescence microscope (Leica). According to the image, a total axon length of a single DRG neuron was tracked by a Neuro J plug-in in Image J software, and a multiple of the total axon length relative to that of the blank control group was calculated.

The structures appear in SMILES notation.

One may read the fold induction as the ratio of treated to control signal. A higher fold induction goes with a large rise in signal.

Regarding `CC[C@@]12C=C(C(=O)NCC(=O)OCCOCCOCCOCCO)n3c4c(c5ccccc53)CCN(CCC1)[C@H]42` [Compound S26], the “50% mechanical pain threshold” value is 1.51 ± 0.22^ g in assay [1] (week 0 of administration); 1.06 ± 0.34 g in assay [1] (week 1 of administration); 0.92 ± 0.24 g in assay [1] (week 2 of administration); 0.87 ± 0.15 g in assay [1] (week 3 of administration); 0.85 ± 0.23 g in assay [1] (week 4 of administration). For the same molecule, the “Motor nerve conduction velocity and anesthesia symptom (in words)” value in assay [2] (type-1 diabetes peripheral neuropathy mouse, Tables 2 to 4) is listed as “obviously improve”. The “Motor nerve conduction velocity” value in assay [2] (week 0 of administration) is 20.37 ± 3.21^ m/s; in assay [2] (week 2 of administration), 27.48 ± 2.97 m/s; in assay [2] (week 4 of administration) it was 31.11 ± 3.85 m/s. The molecule further showed a Total axon length in assay [3] (Type-2 db/db mice, DRG neurons extracted after four weeks of S26 46.8 mg/kg/day intragastric, Mean (SD in the cell below), n = 6) of 6070.18 pixel. Further, in assay [3] (type-2 diabetes peripheral neuropathy model mice), the “Axon growth conditions of DRG neurons (in words, FIG. 1)” value is listed as “obviously improve”. Also, the “Promotion of axon growth of the primary DRG neuron compared with the positive drug (in words)” value in assay [4] (10 μm) is “more outstanding effect”. The molecule also came in with a fold induction at 10 µM in assay [4] (Mus musculus, multiple of total axon length of a single DRG neuron relative to blank control group) of 13.7.
